The numbers were not newly measured in patent US20140357595A1, “METHODS OF PREVENTING AND TREATING RECURRENCE OF A HEPATITIS C VIRUS INFECTION IN A SUBJECT AFTER THE SUBJECT HAS RECEIVED A LIVER TRANSPLANT” (priority 2013, published 2014), which cites them from elsewhere.

For data set [1], the target named is T1, HCV NS5B RNA dependent RNA polymerase (Hepatitis C virus genotype 1a, UniProt P27958).
T1 construct: the HCV NS5B RNA dependent RNA polymerase

For data set [2] the following is noted: clinical trials.

T1 sequence (P27958 2421-3011): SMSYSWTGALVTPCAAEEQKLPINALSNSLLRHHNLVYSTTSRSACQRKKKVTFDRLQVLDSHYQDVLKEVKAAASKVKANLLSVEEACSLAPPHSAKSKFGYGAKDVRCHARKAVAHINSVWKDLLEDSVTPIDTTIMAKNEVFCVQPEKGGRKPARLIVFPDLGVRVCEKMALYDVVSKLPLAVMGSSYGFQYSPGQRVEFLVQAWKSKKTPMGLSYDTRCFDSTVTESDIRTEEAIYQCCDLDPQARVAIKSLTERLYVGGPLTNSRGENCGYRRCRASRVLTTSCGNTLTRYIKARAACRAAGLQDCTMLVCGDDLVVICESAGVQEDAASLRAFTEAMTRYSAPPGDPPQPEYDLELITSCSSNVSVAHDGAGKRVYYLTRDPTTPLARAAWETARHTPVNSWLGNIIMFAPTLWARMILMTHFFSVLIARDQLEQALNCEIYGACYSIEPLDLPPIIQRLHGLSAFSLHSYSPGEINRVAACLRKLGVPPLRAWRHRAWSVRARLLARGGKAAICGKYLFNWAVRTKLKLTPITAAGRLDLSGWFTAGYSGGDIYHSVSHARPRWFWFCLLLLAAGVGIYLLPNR

As to `C[C@@]1(F)[C@H](O)[C@@H](COP(=O)(O)OP(=O)(O)OP(=O)(O)O)O[C@H]1n1ccc(=O)[nH]c1=O` [5′-triphosphate metabolite of Compound 1], the “inhibition of HCV replication mediated by the HCV NS5B RNA dependent RNA polymerase” value in data set [1] is “potent and selective inhibitor”. Regarding `CC(C)OC(=O)[C@H](C)N[P@](=O)(OC[C@H]1O[C@@H](n2ccc(=O)[nH]c2=O)[C@](C)(F)[C@@H]1O)Oc1ccccc1` [Compound 1, (S)-isopropyl 2-(((S)-(((2R,3R,4R,5R)-5-(2,4-dioxo-3,4-dihydropyrimidin-1(2H)-yl)-4-fluoro-3-hydroxy-4-methyltetrahydrofuran-2-yl)methoxy)(phenoxy)phosphoryl)amino)propanoate], the tolerability result in data set [2] is given as “well-tolerated”.
